Data taken from patent US10934274B2, “Quinoline derivatives as TAM RTK inhibitors” (Qurient Co., Ltd., priority 2015, dated 2021).

Experiments:
Axl = target: T1, Axl (Homo sapiens, UniProt P30530); experiment: LanthaScreen Eu kinase binding assay, Axl; details: Tracer 236
T1 construct: purchased Life Technologies
T1 sequence (P30530 26-894): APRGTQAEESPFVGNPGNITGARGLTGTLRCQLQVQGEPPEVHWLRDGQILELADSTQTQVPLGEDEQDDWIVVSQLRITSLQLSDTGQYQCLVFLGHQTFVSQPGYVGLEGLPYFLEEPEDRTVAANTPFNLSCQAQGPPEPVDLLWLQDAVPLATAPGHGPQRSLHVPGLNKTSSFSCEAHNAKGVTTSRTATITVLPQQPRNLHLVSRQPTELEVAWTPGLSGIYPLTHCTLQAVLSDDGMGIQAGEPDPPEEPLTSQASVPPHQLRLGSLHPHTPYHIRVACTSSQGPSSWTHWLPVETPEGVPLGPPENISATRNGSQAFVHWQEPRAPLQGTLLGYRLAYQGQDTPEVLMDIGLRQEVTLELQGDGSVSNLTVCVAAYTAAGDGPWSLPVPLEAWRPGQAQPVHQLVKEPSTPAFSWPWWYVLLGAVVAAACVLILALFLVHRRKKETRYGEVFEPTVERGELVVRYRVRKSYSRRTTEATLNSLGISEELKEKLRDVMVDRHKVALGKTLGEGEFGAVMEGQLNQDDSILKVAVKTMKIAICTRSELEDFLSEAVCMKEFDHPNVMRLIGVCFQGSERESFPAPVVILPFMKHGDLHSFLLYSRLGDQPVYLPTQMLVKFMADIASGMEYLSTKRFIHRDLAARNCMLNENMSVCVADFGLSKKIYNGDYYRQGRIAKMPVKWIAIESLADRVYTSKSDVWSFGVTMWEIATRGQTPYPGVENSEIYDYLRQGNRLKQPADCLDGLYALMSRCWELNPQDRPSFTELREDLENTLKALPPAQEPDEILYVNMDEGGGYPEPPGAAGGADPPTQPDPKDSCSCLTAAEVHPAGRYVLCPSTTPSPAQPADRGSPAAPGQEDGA

Mer = target: T2, Mer (Homo sapiens, UniProt Q12866); experiment: LanthaScreen Eu kinase binding assay, Mer; details: Tracer 236
T2 construct: purchased Life Technologies
T2 sequence (Q12866 21-999): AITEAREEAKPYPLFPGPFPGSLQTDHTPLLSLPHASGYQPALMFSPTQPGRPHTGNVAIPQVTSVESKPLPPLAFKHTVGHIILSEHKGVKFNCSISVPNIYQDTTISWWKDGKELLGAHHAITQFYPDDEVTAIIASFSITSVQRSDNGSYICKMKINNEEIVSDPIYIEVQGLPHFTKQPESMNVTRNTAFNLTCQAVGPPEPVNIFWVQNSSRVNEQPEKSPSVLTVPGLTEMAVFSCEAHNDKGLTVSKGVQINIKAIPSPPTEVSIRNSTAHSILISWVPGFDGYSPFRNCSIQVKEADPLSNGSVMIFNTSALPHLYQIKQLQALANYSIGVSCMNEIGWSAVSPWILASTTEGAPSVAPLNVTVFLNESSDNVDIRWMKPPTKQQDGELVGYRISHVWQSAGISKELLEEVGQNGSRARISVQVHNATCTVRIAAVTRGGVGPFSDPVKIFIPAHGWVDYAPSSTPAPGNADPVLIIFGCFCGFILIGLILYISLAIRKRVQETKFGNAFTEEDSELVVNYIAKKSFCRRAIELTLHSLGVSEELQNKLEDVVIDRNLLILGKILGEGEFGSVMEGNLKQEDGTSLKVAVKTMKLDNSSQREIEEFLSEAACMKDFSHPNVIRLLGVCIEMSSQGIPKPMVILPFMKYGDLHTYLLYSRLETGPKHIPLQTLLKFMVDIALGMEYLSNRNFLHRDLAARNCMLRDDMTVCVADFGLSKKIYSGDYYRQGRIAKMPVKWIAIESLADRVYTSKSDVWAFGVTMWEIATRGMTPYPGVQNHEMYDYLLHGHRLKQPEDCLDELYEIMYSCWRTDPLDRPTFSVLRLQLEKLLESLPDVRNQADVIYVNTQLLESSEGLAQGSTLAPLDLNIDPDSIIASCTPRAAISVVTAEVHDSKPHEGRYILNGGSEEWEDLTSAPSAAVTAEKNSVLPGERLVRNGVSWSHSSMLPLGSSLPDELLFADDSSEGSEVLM

HCC827/ER cells = experiment: WST-1 cell viability assay in erlotinib-resistant cells; details: compound combined with Erlotinib at constant 1:1 ratio, 3 days, FBS 1%
Description: The killed cells were discarded and the remaining cells were cultured in a drug-free medium up to 80% confluence. Subsequently, cells were continuously exposed to increasing drug doses of up to 10 μM over a period of 8 months.
HCC827/ER cells were seeded in a 96-well plate with their respective media containing 10% FBS at 5000 cells/well. After seeding, the HCC827/ER cells were incubated for approximately 24 hours. […] The viability of the HCC827/ER cells was determined by adding WST-1 reagent according to Manufacturer's instructions (DoGenbio co., Ltd) and incubating for four hours. The plates were then read using an absorbance of 440 nm on Tecan Microplate reader (Infinite M200 pro, TECAN). The HCC827/ER cells' viability were calculated relative to vehicle (DMSO) control wells.

Compound | Kd (Axl) | Kd (Mer) | Combination effect of compound and erlotinib on inhibition activity in Erlotinib-resistant cell-line (HCC827/ER cells)
COc1cc2nccc(Oc3ccc(NC(=O)c4nn(-c5ccc(F)cc5C)cc4OCC(F)(F)F)nc3)c2cc1OC [Compound 203] | < 100 nM | < 100 nM | –
CCOc1cn(-c2ccc(F)cc2CC)nc1C(=O)Nc1ccc(Oc2ccnc3cc(OC)c(OC)cc23)cn1 [Compound 112] | < 100 nM | < 100 nM | –
CCOc1cn(-c2cnccc2Cl)nc1C(=O)Nc1ccc(Oc2ccnc3cc(OC)c(OC)cc23)cn1 [Compound 183] | < 100 nM | < 100 nM | –
CCOc1cn(-c2c(C)ccnc2C)nc1C(=O)Nc1ccc(Oc2ccnc3cc(OC)c(OC)cc23)cc1F [Compound 191] | < 100 nM | < 100 nM | –
CCOc1cn(-c2ccc(Cl)cc2CC)nc1C(=O)Nc1ccc(Oc2ccnc3cc(OC)c(OC)cc23)cn1 [Compound 111] | < 100 nM | < 100 nM | –
CCOc1cnn(-c2ccc(C(F)(F)F)cc2C)c1C(=O)Nc1ccc(Oc2ccnc3cc(OC)c(OC)cc23)cn1 [Compound 102] | < 100 nM | 100 to 1000 nM | –
CCOc1cn(-c2cnccc2CCO)nc1C(=O)Nc1ccc(Oc2ccnc3cc(OC)c(OC)cc23)cn1 [Compound 181] | < 100 nM | < 100 nM | –
CCOc1cn(-c2c(C)ccnc2C)nc1C(=O)Nc1ccc(Oc2ccnc3cc(OC)c(OC)cc23)cn1 [Compound 132] | < 100 nM | < 100 nM | synergistic effect
CCOc1cn(-c2ncc(Cl)cc2C#N)nc1C(=O)Nc1ccc(Oc2ccnc3cc(OC)c(OC)cc23)cn1 [Compound 133] | < 100 nM | < 100 nM | –
CCOc1cn(-c2c(C)cc(C)cc2C)nc1C(=O)Nc1ccc(Oc2ccnc3cc(OC)c(OC)cc23)cn1 [Compound 117] | < 100 nM | < 100 nM | –
CCOc1cn(-c2cscn2)nc1C(=O)Nc1ccc(Oc2ccnc3cc(OC)c(OC)cc23)cn1 [Compound 13] | < 100 nM | < 100 nM | –
CCOc1cn(-c2cnccc2CO)nc1C(=O)Nc1ccc(Oc2ccnc3cc(OC)c(OC)cc23)c(F)c1 [Compound 207] | < 100 nM | < 100 nM | –
CCOc1cn(-c2noc(C)n2)nc1C(=O)Nc1ccc(Oc2ccnc3cc(OC)c(OC)cc23)cn1 [Compound 161] | < 100 nM | < 100 nM | –
CCOc1cn(-c2ccc(F)c(CN(C)C)c2)nc1C(=O)Nc1ccc(Oc2ccnc3cc(OC)c(OC)cc23)cn1 [Compound 124] | < 100 nM | < 100 nM | –
CCOc1cn(-c2ncn(C)n2)nc1C(=O)Nc1ccc(Oc2ccnc3cc(OC)c(OC)cc23)cn1 [Compound 165] | < 100 nM | < 100 nM | –
CCOc1cn(-c2nccs2)nc1C(=O)Nc1ccc(Oc2ccnc3cc(OC)c(OC)cc23)cn1 [Compound 12] | < 100 nM | < 100 nM | –
CCOc1cn(-c2ccc(Cl)c(CN(C)C)c2)nc1C(=O)Nc1ccc(Oc2ccnc3cc(OC)c(OC)cc23)cn1 [Compound 126] | < 100 nM | < 100 nM | –
CCOc1cn(-c2cnccc2C(F)(F)F)nc1C(=O)Nc1ccc(Oc2ccnc3cc(OC)c(OC)cc23)c(F)c1 [Compound 198] | < 100 nM | < 100 nM | –
CCOc1cn(-c2cnc(CO)nc2)nc1C(=O)Nc1ccc(Oc2ccnc3cc(OC)c(OC)cc23)cn1 [Compound 96] | < 100 nM | < 100 nM | –

Compound | Kd (Axl) | Kd (Mer) | Combination effect of compound and erlotinib on inhibition activity in Erlotinib-resistant cell-line (HCC827/ER cells)
CCOc1cn(-c2ccc(F)cc2F)nc1C(=O)Nc1ccc(Oc2ccnc3cc(OC)c(OC)cc23)cn1 [Compound 107] | < 100 nM | < 100 nM | –
CCOc1cn(-c2ccc(OC(F)(F)F)cc2Cl)nc1C(=O)Nc1ccc(Oc2ccnc3cc(OC)c(OC(F)(F)F)cc23)cn1 [Compound 201] | ≥ 1000 nM | 100 to 1000 nM | –
CCOc1cn(-c2cn[nH]c2)nc1C(=O)Nc1ccc(Oc2ccnc3cc(OC)c(OC)cc23)cn1 [Compound 8] | < 100 nM | < 100 nM | –
CCOc1cn(-c2cnccc2Cl)nc1C(=O)Nc1ccc(Oc2ccnc3cc(OC)c(OC)cc23)c(F)c1 [Compound 193] | < 100 nM | < 100 nM | –
CCOc1cn(-c2ccc(Cl)cc2Cl)nc1C(=O)Nc1ccc(Oc2ccnc3cc(OC)c(OC)cc23)cn1 [Compound 108] | < 100 nM | < 100 nM | –
CCOc1cn(-c2cccnc2)nc1C(=O)Nc1ccc(Oc2ccnc3cc(OC(C)C)c(OC)cc23)cn1 [Compound 208] | < 100 nM | < 100 nM | –
CCOc1cn(-c2nccnc2Cl)nc1C(=O)Nc1ccc(Oc2ccnc3cc(OC)c(OC)cc23)cc1F [Compound 190] | < 100 nM | < 100 nM | –
CCOc1cn(-c2cnc(OC)nc2)nc1C(=O)Nc1ccc(Oc2ccnc3cc(OC)c(OC)cc23)cn1 [Compound 148] | < 100 nM | < 100 nM | –
CCOc1cn(-c2ccc(C(C)C)cc2F)nc1C(=O)Nc1ccc(Oc2ccnc3cc(OC)c(OC)cc23)cn1 [Compound 127] | < 100 nM | < 100 nM | –
CCOc1cn(-c2cnccc2C(C)(C)O)nc1C(=O)Nc1ccc(Oc2ccnc3cc(OC)c(OC)cc23)c(F)c1 [Compound 195] | < 100 nM | < 100 nM | –
CCOc1cn(-c2cncs2)nc1C(=O)Nc1ccc(Oc2ccnc3cc(OC)c(OC)cc23)cn1 [Compound 14] | < 100 nM | < 100 nM | –
CCOc1cn(-c2ccc(OC(F)(F)F)cc2Cl)nc1C(=O)Nc1ccc(Oc2ccnc3cc(OC)c(OC)cc23)cc1F [Compound 192] | < 100 nM | < 100 nM | –
CCOc1cn(-c2cnccc2C(F)(F)F)nc1C(=O)Nc1ccc(Oc2ccnc3cc(OC)c(OC)cc23)cc1F [Compound 196] | < 100 nM | < 100 nM | –
CCOc1cn(-c2cncnc2C)nc1C(=O)Nc1ccc(Oc2ccnc3cc(OC)c(OC)cc23)cn1 [Compound 149] | < 100 nM | < 100 nM | synergistic effect
CCOc1cn(-c2cccnc2)nc1C(=O)Nc1ccc(Oc2ccnc3cc(OC)c(OC(F)(F)F)cc23)cn1 [Compound 199] | < 100 nM | < 100 nM | –
CCOc1cn(-c2cnccc2C)nc1C(=O)Nc1ccc(Oc2ccnc3cc(OC)c(OC)cc23)nn1 [Compound 210] | < 100 nM | < 100 nM | –
CCOc1cn(-c2ccc(Cl)c(C(=O)N(C)C)c2)nc1C(=O)Nc1ccc(Oc2ccnc3cc(OC)c(OC)cc23)cn1 [Compound 129] | < 100 nM | < 100 nM | –
CCOc1cn(-c2cnc(Cl)cn2)nc1C(=O)Nc1ccc(Oc2ccnc3cc(OC)c(OC)cc23)cn1 [Compound 169] | < 100 nM | < 100 nM | –
